Laboratory results: US9981973B2, “Tricyclic compounds as inhibitors of immunosuppression mediated by tryptophan metabolization” (NewLink Genetics Corporation, priority 2013, dated 2018)
pIC50: −log10 of the molar value.

Biological target: purified human TDO protein (Homo sapiens (Human), UniProt P48775)
Assay: Enzymatic TDO assay
Assay type: biochemical
Description: Differently from the IDO activity assay, no methylene blue is added to the assay. The inhibitors were initially diluted in DMSO at 100 mM and were diluted in potassium phosphate 50 mM, added to the reaction mixture at final concentrations raging from 30 μM to 5 nM and preincubated with the enzyme for 5 min at 25° C. The reaction was started by addition of L-tryptophan to 20 μM and incubated 15 min at 37° C. The reaction was stopped by addition of 0.5 vol of 30% trichloroacetic acid and incubated 30 min at 60° C. to hydrolyze N-formylkynurenine to kynurenine. The reaction was centrifuged at 3400 g for 5 min to remove precipitated protein and the supernatant was reacted with 2% (w/v) of p-dimethylaminobenzaldehyde in acetic acid. The reaction was incubated 10 min at 25° C. and read at 480 nm in a spectrophotometer. Control samples with no TDO inhibitor, or with no TDO enzyme were used as controls to set the parameters for the non-linear regressions necessary for determination of the IC50 for each compound. Nonlinear regressions and determination of the IC50 values were performed using the GraphPad Prism 4 software.

Chain of purified human TDO protein (P48775 whole entry): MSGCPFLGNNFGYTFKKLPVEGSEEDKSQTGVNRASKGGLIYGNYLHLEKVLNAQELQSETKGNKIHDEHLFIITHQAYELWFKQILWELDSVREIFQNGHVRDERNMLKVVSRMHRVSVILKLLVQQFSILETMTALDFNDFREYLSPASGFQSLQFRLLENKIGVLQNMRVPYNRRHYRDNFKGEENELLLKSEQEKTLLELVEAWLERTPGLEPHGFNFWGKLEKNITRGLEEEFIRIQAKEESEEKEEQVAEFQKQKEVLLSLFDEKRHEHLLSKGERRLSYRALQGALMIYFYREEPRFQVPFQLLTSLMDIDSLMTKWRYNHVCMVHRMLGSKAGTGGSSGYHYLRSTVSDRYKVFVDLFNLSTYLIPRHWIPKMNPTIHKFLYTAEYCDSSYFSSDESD

SMILES | pIC50
OC(CC1c2ccccc2-c2nncn21)C1CCCCC1 (stereo not drawn) [Compound 69, 2-(5H-[1,2,4]triazolo[3,4-a]isoindol-5-yl)-1-cyclohexylethan-1-ol] | < 5.00
O=C(CC1c2ccccc2-c2cnnn21)C1CCC(F)(F)CC1 (stereo not drawn) [Compound 54, 2-(8H-[1,2,3]triazolo[5,1-a]isoindol-8-yl)-1-(4,4-difluorocyclohexyl)ethan-1-one] | < 5.00
O=C(CC1c2ccccc2-c2nncn21)C1CCCCC1 (stereo not drawn) [Compound 43, 2-(5H-[1,2,4]triazolo[3,4-a]isoindol-5-yl)-1-cyclohexylethan-1-one] | < 5.00
